Tests used:
FGR [1] = molecular target: T1, FGR (Homo sapiens, UniProt P09769, G2A); experiment: Binding of dasatinib-magnetic substance to EGFP-labelled kinase in cells (magnetic pattern co-localization); conditions: FGR-EGFP (G2A) in HeLa cells; dasatinib-biotin coated on streptavidin magnetic substance; magnetic field
CSK [2] = molecular target: T2, CSK (Homo sapiens, UniProt P41240); experiment: as above; conditions: CSK-EGFP in HeLa cells; dasatinib-biotin coated on streptavidin magnetic substance; magnetic field
ABL2 [3] = experiment: as above; conditions: EGFP-ABL2 in HeLa cells; dasatinib-biotin coated on streptavidin magnetic substance; magnetic field
RIPK2 [4] = molecular target: T3, RIPK2 (Homo sapiens, UniProt O43353); experiment: as above; format: cell-based; conditions: RIPK2-EGFP in HeLa cells; dasatinib-biotin coated on streptavidin magnetic substance; magnetic field
T3 construct: the ORF without the stop codon was amplified for each gene by PCR; expressed in transfected cells; host or cells: HeLa
Description: (§1) Bioconjug. […] Adv. Mater. […] J. Am. Chem. Soc. 130, 16466].
(§2) J. Am. Chem. Soc. 130, 16466].
(§3) Nature 255: 706]. […] J. Am. Chem. Soc. 130, 16466].
(§4) The result is illustrated in FIG. 2.

LYN [5] = molecular target: T4, LYN (Homo sapiens, UniProt P07948, G2A); experiment: as above; format: cell-based; conditions: LYN-EGFP (G2A) in HeLa cells; dasatinib-biotin coated on streptavidin magnetic substance; magnetic field
T4 construct: the ORF without the stop codon was amplified for each gene by PCR; expressed in transfected cells; host or cells: HeLa
Description: as §1, §2, §3, §4

BLK [6] = molecular target: T5, BLK (Homo sapiens, UniProt P51451, G2A); experiment: as above; format: cell-based; conditions: BLK-EGFP (G2A) in HeLa cells; dasatinib-biotin coated on streptavidin magnetic substance; magnetic field
T5 construct: the ORF without the stop codon was amplified for each gene by PCR; expressed in transfected cells; host or cells: HeLa
Description: as §1, §2, §3, §4

SNF1LK [7] = molecular target: T6, SNF1LK (Homo sapiens, UniProt P57059); experiment: Competition reaction with dasatinib-magnetic substance for EGFP-labelled kinase in cells; format: cell-based; conditions: SNF1LK-EGFP in HeLa cells; 10 μM reactive competitor for 30 minutes to 2 hours
T6 construct: the ORF without the stop codon was amplified for each gene by PCR and then cloned into an expression vector; expressed in transfected cells; host or cells: HeLa

RIPK2 [8] = molecular target: T3, RIPK2; experiment: as above; format: cell-based; conditions: RIPK2-EGFP in HeLa cells; 10 μM reactive competitor for 30 minutes to 2 hours
LYN [9] = molecular target: T4, LYN; experiment: as above; format: cell-based; conditions: LYN-EGFP in HeLa cells; 10 μM reactive competitor for 30 minutes to 2 hours
FGR [10] = molecular target: T1, FGR; experiment: as above; conditions: FGR-EGFP in HeLa cells; 10 μM reactive competitor for 30 minutes to 2 hours
KIT = molecular target: T7, KIT (Homo sapiens, UniProt P10721); experiment: as above; format: cell-based; conditions: KIT-EGFP in HeLa cells; 10 μM reactive competitor for 30 minutes to 2 hours
T7 construct: only the region of the amino acids 545 to 976 was amplified by PCR; expressed in transfected cells; host or cells: HeLa

CSK [11] = molecular target: T2, CSK; experiment: as above; conditions: CSK-EGFP in HeLa cells; 10 μM reactive competitor for 30 minutes to 2 hours
BLK [12] = molecular target: T5, BLK; experiment: as above; format: cell-based; conditions: BLK-EGFP in HeLa cells; 10 μM reactive competitor for 30 minutes to 2 hours
ABL2 [13] = experiment: as above; conditions: EGFP-ABL2 in HeLa cells; 10 μM reactive competitor for 30 minutes to 2 hours
MAPK14 [14] = molecular target: T8, MAPK14 (Homo sapiens, UniProt Q16539); experiment: as above; conditions: MAPK14-EGFP in HeLa cells; 10 μM reactive competitor for 30 minutes to 2 hours
SNF1LK [15] = molecular target: T6, SNF1LK; experiment: Binding of dasatinib-magnetic substance to EGFP-labelled kinase in cells (magnetic pattern co-localization); format: cell-based; conditions: SNF1LK-EGFP in HeLa cells; dasatinib on magnetic substance; no reactive competitor
Description: as §1, §2, §3

MAPK14 [16] = molecular target: T8, MAPK14; experiment: as above; conditions: MAPK14-EGFP in HeLa cells; dasatinib on magnetic substance; no reactive competitor

T2 sequence (P41240 whole entry): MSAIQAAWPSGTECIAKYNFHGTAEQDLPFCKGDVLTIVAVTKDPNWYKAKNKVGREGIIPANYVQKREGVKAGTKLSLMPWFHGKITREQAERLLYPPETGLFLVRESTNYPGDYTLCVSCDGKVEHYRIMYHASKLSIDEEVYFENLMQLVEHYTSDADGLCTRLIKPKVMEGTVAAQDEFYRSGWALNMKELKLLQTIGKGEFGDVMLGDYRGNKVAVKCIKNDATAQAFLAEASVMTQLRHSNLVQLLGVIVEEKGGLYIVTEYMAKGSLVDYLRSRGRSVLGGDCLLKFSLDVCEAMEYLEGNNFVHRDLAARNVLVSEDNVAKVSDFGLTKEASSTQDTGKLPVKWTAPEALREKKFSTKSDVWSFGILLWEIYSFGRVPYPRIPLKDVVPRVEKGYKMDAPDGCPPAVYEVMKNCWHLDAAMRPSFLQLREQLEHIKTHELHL
T4 sequence (P07948 1-491 isoform P07948-2 G2A): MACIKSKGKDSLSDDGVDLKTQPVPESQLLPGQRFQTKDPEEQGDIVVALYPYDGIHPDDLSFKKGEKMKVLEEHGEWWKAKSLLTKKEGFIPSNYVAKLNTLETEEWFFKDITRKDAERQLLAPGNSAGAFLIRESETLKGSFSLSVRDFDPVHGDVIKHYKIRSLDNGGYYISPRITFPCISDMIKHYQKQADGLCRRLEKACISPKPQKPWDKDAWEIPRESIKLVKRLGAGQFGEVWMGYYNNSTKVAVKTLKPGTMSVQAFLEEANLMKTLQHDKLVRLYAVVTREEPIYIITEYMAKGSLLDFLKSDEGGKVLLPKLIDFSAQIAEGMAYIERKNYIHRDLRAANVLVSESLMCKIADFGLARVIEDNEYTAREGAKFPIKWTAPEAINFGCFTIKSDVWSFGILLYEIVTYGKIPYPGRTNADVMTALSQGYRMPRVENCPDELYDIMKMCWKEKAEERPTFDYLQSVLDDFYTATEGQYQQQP
T8 sequence (Q16539 1-360 isoform Q16539-2): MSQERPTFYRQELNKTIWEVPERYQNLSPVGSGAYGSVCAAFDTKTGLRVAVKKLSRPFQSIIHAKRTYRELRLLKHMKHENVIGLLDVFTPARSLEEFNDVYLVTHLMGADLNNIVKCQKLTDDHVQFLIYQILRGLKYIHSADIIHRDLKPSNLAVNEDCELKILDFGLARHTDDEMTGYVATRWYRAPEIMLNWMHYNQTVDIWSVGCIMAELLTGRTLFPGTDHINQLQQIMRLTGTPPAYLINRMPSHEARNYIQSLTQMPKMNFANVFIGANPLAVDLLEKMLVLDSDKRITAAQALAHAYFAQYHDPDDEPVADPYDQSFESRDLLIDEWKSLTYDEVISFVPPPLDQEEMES
T5 sequence (P51451 whole entry G2A): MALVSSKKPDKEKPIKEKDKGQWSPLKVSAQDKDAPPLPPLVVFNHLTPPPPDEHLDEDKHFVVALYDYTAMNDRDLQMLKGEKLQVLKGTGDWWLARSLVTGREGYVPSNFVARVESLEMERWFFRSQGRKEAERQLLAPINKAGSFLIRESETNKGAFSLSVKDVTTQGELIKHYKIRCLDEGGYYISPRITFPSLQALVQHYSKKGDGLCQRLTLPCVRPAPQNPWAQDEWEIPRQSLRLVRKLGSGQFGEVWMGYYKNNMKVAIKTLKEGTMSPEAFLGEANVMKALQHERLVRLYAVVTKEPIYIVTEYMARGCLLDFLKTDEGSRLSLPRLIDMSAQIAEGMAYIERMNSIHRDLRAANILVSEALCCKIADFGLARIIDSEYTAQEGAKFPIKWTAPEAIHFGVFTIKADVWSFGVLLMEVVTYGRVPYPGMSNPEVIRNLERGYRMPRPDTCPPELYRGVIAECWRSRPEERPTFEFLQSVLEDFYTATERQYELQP
T6 sequence (P57059 whole entry): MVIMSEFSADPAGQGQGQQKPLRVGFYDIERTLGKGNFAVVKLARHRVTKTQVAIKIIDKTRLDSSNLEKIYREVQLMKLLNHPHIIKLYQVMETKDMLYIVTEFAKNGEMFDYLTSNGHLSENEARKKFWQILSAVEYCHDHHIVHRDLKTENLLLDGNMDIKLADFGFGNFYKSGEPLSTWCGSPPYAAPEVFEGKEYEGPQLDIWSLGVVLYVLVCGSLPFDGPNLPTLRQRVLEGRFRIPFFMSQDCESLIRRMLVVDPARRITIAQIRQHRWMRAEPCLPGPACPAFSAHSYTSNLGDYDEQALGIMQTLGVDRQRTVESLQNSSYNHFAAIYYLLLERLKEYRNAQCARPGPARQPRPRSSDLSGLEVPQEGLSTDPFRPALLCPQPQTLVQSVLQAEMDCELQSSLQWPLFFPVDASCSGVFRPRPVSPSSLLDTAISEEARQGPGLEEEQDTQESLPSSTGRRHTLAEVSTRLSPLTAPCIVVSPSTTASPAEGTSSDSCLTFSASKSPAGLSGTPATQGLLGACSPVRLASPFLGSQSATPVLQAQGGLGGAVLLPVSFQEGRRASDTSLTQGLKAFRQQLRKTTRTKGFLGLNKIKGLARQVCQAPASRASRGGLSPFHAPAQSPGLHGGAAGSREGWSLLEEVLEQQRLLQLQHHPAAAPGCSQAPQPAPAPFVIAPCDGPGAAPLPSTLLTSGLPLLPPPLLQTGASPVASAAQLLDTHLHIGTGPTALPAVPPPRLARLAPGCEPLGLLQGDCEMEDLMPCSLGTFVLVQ
T3 sequence (O43353 whole entry): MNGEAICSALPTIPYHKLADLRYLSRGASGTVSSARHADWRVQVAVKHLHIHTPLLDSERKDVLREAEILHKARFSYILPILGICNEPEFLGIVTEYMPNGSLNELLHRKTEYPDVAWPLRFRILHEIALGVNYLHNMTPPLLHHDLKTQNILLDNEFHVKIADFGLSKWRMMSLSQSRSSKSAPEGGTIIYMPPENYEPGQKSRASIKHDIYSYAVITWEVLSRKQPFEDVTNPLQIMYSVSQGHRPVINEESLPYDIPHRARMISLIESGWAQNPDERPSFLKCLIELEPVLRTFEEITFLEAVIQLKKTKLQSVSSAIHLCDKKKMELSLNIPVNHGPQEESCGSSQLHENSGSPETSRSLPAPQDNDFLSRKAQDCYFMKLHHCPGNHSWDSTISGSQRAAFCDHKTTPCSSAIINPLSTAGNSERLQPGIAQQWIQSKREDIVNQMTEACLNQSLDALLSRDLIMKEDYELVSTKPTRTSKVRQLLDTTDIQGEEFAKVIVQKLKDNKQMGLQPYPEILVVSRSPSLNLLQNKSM
T7 sequence (P10721 545-976): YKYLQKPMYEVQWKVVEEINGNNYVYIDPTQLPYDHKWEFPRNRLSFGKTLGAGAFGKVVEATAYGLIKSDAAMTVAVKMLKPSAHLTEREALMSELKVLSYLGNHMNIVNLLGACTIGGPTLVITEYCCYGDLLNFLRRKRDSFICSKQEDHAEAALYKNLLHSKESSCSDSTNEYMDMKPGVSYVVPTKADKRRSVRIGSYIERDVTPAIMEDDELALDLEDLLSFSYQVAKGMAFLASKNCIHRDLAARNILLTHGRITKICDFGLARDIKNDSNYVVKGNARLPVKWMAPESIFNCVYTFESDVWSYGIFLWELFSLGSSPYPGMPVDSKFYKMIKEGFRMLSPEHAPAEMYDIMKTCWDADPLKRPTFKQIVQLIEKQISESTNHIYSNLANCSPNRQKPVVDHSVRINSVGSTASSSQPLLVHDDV

Cc1nc(Nc2ncc(C(=O)Nc3c(C)cccc3Cl)s2)cc(N2CCN(CCO)CC2)n1 [dasatinib, N-(2-chloro-6-methyl-phenyl)-2-(6-(4-(2-hydroxyethyl)-piperazin-1-yl)-2-methylpyrimidin-4-ylamino)thiazole-5-carboxamide]
fluorescent pattern of kinase-EGFP overlapped with magnetization pattern (binding) (FGR [1]): showed the fluorescent patterns aligned in a magnetized direction | fluorescent pattern of kinase-EGFP overlapped with magnetization pattern (binding) (CSK [2]): showed the fluorescent patterns aligned in a magnetized direction | fluorescent pattern of kinase-EGFP overlapped with magnetization pattern (binding) (ABL2 [3]): showed the fluorescent patterns aligned in a magnetized direction | fluorescent pattern of kinase-EGFP overlapped with magnetization pattern (binding) (RIPK2 [4]): showed the fluorescent patterns aligned in a magnetized direction | fluorescent pattern of kinase-EGFP overlapped with magnetization pattern (binding) (LYN [5]): showed the fluorescent patterns aligned in a magnetized direction | fluorescent pattern of kinase-EGFP overlapped with magnetization pattern (binding) (BLK [6]): showed the fluorescent patterns aligned in a magnetized direction | competition with dasatinib-magnetic substance: fluorescent pattern overlapped with magnetization pattern (SNF1LK [7]): fluorescent pattern overlapped with an induced magnetization pattern of the magnetic substances was not observed | competition with dasatinib-magnetic substance: fluorescent pattern overlapped with magnetization pattern (RIPK2 [8]): fluorescent pattern overlapped with an induced magnetization pattern of the magnetic substances was not observed | competition with dasatinib-magnetic substance: fluorescent pattern overlapped with magnetization pattern (LYN [9]): fluorescent pattern overlapped with an induced magnetization pattern of the magnetic substances was not observed | competition with dasatinib-magnetic substance: fluorescent pattern overlapped with magnetization pattern (FGR [10]): fluorescent pattern overlapped with an induced magnetization pattern of the magnetic substances was not observed | competition with dasatinib-magnetic substance: fluorescent pattern overlapped with magnetization pattern (KIT): fluorescent pattern overlapped with an induced magnetization pattern of the magnetic substances was not observed | competition with dasatinib-magnetic substance: fluorescent pattern overlapped with magnetization pattern (CSK [11]): fluorescent pattern overlapped with an induced magnetization pattern of the magnetic substances was not observed | competition with dasatinib-magnetic substance: fluorescent pattern overlapped with magnetization pattern (BLK [12]): fluorescent pattern overlapped with an induced magnetization pattern of the magnetic substances was not observed | competition with dasatinib-magnetic substance: fluorescent pattern overlapped with magnetization pattern (ABL2 [13]): fluorescent pattern overlapped with an induced magnetization pattern of the magnetic substances was not observed | competition with dasatinib-magnetic substance: fluorescent pattern overlapped with magnetization pattern (MAPK14 [14]): fluorescent pattern overlapped with an induced magnetization pattern of the magnetic substances was not observed | fluorescent pattern of kinase-EGFP overlapped with magnetization pattern (binding) (SNF1LK [15]): interacted | fluorescent pattern of kinase-EGFP overlapped with magnetization pattern (binding) (MAPK14 [16]): interacted

Cc1ccc(NC(=O)c2ccc(CN3CCN(C)CC3)cc2)cc1Nc1nccc(-c2cccnc2)n1 [imatinib]
competition with dasatinib-magnetic substance: fluorescent pattern overlapped with magnetization pattern (KIT): interacts

— patent publication US20110201016A1, “METHOD FOR DETECTING MODULATOR FOR REGULATING ACTIVITY OF CELLULAR COMPONENT IN CELL” (MEDISCOV INC., priority 2010, published 2011)
